ChEMBL document CHEMBL1201862, “PubChem BioAssay data set” (2004)
Activity calls are given as the source filed them.

Key:
ORF 73 = ORF 73 (Human herpesvirus 8, UniProt O40947); test: KSHV LANA DNA-binding disruption – biochemical, fluorescence polarization, cherry-picked samples, dose response (AID 504725); parameters: species or system Human gammaherpesvirus 8;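 note: fluorescence polarization of a labeled DNA duplex reporting LANA DNA binding; potency is for inhibitors that block LANA binding to the DNA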
Protein RecA = molecular target: T1, Protein RecA (Mycobacterium tuberculosis, UniProt P9WHJ3); test: Fluorescence Cell-Free Homogeneous Dose Retest to Identify Inhibitors of RecA-Intein Splicing Activity. [Related pubchem assays (depositor defined):AID2097, AID2223, AID489010, AID492950]; format: functional
T1 sequence (P9WHJ3 whole entry): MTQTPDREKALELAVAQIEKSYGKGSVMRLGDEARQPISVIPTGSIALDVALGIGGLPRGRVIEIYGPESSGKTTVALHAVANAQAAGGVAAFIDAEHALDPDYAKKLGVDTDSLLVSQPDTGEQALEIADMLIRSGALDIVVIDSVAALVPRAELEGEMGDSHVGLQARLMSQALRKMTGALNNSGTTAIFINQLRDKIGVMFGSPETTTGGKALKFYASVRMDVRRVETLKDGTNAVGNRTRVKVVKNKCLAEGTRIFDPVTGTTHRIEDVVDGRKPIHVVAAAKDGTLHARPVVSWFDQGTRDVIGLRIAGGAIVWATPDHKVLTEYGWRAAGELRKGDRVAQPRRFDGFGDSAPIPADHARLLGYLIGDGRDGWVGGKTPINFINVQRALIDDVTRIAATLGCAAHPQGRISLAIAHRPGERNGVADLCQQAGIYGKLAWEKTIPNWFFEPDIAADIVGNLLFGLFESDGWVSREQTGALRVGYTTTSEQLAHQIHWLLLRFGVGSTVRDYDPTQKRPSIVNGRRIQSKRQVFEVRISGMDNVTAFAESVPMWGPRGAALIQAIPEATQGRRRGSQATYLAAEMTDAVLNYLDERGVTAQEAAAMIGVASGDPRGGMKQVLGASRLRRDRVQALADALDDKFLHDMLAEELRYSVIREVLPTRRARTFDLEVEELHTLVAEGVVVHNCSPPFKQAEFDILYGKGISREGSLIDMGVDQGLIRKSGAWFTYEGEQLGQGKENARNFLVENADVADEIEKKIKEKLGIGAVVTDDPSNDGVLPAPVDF

[1] = molecular target: T2, Replicative DNA helicase DnaB (Mycobacterium tuberculosis, UniProt P9WMR3); test: DnaB intein splicing inhibitors, dose response, biochemical, cell-free fluorescence (AID 449749); format: functional
T2 sequence (P9WMR3 whole entry): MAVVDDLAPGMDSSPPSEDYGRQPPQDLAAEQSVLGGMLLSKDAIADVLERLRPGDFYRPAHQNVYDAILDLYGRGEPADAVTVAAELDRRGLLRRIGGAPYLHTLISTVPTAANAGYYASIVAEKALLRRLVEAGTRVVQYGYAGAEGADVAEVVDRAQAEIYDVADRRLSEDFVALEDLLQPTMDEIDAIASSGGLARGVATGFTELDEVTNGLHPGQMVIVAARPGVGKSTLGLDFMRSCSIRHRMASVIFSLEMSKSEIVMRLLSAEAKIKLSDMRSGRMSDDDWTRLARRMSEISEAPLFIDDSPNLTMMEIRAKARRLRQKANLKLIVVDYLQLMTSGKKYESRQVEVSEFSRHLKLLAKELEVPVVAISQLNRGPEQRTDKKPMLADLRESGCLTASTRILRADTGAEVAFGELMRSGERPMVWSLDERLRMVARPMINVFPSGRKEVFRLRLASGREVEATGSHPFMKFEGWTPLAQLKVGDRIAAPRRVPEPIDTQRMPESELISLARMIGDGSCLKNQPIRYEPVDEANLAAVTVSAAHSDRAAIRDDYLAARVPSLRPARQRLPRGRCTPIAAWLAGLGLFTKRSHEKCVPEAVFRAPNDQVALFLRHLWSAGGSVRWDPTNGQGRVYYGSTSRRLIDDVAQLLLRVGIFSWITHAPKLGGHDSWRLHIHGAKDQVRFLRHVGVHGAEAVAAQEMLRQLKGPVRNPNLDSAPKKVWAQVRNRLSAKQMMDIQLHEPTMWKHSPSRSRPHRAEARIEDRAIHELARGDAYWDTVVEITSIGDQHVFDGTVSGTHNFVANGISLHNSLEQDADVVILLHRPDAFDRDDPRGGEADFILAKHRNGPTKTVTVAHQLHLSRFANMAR

[2] = system: Streptococcus sp. 'group A'; test: Streptococcus pyogenes SK(-)GAS viability under kanamycin – luminescence, BacTiterGlo, confirmation, counter-screen for streptokinase expression inhibitor project, dose response (AID 1900); format: functional, organism-based
Streptokinase A = molecular target: T3, Streptokinase A (Streptococcus pyogenes serotype M1, UniProt P10520); test: viability-normalized secreted streptokinase activity reduction – plasminogen activation absorbance, OD405, dose response (AID 1914); format: functional, Streptococcus pyogenes M1 GAS;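 note: secreted streptokinase activity via plasminogen activation per viability signal from cell pellet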
T3 sequence (P10520 whole entry): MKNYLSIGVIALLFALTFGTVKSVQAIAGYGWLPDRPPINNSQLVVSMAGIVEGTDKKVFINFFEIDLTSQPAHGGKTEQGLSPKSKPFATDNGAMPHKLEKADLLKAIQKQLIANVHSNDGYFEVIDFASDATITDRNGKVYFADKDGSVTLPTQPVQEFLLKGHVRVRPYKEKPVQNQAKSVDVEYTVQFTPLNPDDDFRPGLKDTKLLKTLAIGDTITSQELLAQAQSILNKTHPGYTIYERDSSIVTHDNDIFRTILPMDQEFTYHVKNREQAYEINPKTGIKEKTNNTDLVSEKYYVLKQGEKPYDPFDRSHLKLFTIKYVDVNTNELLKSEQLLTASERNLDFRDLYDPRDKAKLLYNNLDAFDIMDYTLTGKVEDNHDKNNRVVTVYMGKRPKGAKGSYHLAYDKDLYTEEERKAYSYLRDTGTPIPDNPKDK

[3] = HepG2 cell cytotoxicity, dose response, cytotoxicity control for non-replicating M. tuberculosis project (AID 489018); format: functional; conditions: Mycobacterium tuberculosis
[4] = molecular target: Mothers against decapentaplegic homolog 3 (Homo sapiens, UniProt P84022); test: inhibitors of SMAD-driven TGF-beta signaling – dose response (AID 715); format: functional
Mu-type opioid receptor = Mu-type opioid receptor (Homo sapiens, UniProt P35372); test: Counterscreen for agonists of heterodimerization of the mu 1 (OPRM1) and delta 1 (OPRD1) opioid receptors: Luminescence-based cell-based high throughput dose response assay to identify agonists of OPRM1 homodimerization.; format: functional;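 note: U2OS cells expressing OPRM1 and beta-arrestin as split beta-galactosidase partners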
[5] = molecular target: T4, Sentrin-specific protease 8 (Homo sapiens, UniProt Q96LD8); format: functional;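 note: luminescence read-out of SENP8 inhibition, dose-response confirmation following an ultra-high-throughput screen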
T4 sequence (Q96LD8 whole entry): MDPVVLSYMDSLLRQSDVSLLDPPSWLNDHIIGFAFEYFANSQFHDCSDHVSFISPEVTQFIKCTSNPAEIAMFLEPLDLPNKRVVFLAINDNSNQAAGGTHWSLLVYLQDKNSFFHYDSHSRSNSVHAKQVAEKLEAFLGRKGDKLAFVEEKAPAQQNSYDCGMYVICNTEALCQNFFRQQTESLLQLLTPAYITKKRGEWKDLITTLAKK

ORF 73, sequence (O40947 whole entry): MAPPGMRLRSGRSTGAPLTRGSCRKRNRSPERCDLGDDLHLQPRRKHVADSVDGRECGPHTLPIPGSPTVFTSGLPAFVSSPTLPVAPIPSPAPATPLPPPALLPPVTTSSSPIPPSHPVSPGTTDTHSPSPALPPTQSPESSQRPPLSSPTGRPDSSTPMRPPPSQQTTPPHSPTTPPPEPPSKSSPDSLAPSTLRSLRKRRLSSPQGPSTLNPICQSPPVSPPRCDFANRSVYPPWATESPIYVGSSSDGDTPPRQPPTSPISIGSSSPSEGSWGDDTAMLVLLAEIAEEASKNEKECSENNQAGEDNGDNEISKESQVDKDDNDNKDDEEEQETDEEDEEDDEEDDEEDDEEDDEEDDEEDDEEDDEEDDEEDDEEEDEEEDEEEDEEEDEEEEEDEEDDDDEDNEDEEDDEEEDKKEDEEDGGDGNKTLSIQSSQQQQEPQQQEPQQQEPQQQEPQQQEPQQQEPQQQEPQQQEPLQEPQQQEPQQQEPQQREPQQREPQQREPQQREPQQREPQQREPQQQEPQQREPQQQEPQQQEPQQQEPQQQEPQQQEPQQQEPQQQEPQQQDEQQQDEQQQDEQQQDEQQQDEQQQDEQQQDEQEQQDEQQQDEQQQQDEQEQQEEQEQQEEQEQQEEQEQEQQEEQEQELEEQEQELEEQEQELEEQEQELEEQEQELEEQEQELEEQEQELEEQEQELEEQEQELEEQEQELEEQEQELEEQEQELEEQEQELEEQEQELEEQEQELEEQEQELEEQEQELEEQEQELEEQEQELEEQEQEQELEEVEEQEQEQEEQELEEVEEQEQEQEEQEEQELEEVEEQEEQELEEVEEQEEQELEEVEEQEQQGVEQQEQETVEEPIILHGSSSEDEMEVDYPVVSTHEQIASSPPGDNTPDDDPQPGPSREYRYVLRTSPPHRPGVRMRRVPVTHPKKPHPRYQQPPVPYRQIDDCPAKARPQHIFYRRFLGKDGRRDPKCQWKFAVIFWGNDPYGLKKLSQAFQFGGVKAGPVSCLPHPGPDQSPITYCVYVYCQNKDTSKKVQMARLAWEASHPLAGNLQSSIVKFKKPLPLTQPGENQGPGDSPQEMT
Mu-type opioid receptor, sequence (P35372 whole entry): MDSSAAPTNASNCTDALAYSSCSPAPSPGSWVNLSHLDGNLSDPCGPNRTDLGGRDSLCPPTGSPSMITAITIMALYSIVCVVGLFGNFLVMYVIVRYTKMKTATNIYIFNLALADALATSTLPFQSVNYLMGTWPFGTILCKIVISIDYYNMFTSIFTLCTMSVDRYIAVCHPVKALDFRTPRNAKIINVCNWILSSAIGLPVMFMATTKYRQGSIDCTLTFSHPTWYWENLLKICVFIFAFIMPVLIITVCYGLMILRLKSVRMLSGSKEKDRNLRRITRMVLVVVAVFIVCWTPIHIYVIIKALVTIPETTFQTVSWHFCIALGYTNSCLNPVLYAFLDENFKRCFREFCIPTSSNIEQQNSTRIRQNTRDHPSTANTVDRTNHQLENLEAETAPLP
Mothers against decapentaplegic homolog 3, sequence (P84022 whole entry): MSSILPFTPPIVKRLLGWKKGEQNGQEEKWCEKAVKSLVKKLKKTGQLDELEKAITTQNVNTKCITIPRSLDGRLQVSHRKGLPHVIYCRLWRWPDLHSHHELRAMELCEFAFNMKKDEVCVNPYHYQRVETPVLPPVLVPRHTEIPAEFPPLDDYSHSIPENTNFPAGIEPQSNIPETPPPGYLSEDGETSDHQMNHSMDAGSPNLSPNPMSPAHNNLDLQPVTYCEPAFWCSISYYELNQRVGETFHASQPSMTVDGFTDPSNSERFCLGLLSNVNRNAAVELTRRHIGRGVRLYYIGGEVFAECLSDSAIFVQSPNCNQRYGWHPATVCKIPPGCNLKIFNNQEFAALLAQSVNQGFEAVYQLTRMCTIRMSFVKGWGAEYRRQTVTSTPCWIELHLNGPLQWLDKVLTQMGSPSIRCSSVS

For `O=C(CCN1C(=O)/C(=C\c2ccco2)SC1=S)Nc1ccc(C(=O)O)c(O)c1`, which AC50 (ORF 73) is on record?
The AC50 was 94.6 µM (active).

With `Cc1nc2c(=O)n(C)c(=O)nc-2n(C)n1` as the molecule, how does the EC50 (Protein RecA) read?
Its EC50 is 0.0209 µM (active).

And the AC50 [1]?
The AC50 was 0.0978 µM (active).

And the EC50 [2]?
Its EC50 is 4.74 µM (active).

What about the EC50 (Streptokinase A) of the same molecule?
Its EC50 is > 150 µM (not active).

What about the CC50 [3] of the same molecule?
Its CC50 is 4.16 µM (active).

What about the IC50 [4] of the same molecule?
The IC50 was 0.038 µM (active).

For `O=C1C=C(c2c(O)ccc3ccccc23)c2ccccc2C1=O`, which EC50 (Mu-type opioid receptor) is on record?
Its EC50 is > 92.4 µM (inactive).

With `Oc1nc(Nc2ccccc2Cl)cc2ccccc12` as the molecule, how does the EC50 (Protein RecA) read?
Its EC50 is 1.99 µM (active).

And the AC50 [1]?
Its AC50 is 9.33 µM (active).

What about the IC50 [5] of the same molecule?
The IC50 was 4.23 µM (active).
